What is called IC50 is the concentration that inhibits the measured activity by half.

Assay [1] in a line: Hoechst 33342 nuclear staining.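 As to all read-outs here: apoptotic nuclei scored 0 none 1 weak under 50% of cells 2 strong over 50% of cells.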 The format is cell-based. The note with it: 24 h or 48 h incubation; for Hoechst 33342 nuclear staining score, HeLa: HeLa cells; for Hoechst 33342 nuclear staining score, Jurkat: Jurkat cells. A digest of the protocol: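 Cells were plated in 96 well tissue culture plates in 80 μl complete medium, with 3-5*10^3 cells per well for adherent lines and 8-10*10^3 for suspension lines. Adherent cells spread for 24 h before treatment, while suspension cells were treated right after seeding. Compounds were added in 20 μl complete medium containing max 5% DMSO.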

In assay [2] the test system is HeLa. Kind of assay: MTS proliferation assay. The format is cell-based, human. The note with it: 72 h. In a few lines: (§1)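 Absorbance at 492 nm after a 3 h MTS incubation reports viable cell number. Before that, compounds at 10 μM, 3 μM, 1 μM and 0.3 μM final stay on the cells for 72 h at culture conditions.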
(Tetrazolium dyes change colour on reduction, which living cells bring about.)

Assay [3] has as its system Jurkat. Nature of the assay: MTS proliferation assay. The format is cell-based, human. To be noted: 72 h. In a few lines:
as §1

Assay [4] deals with MRC5. Nature of the assay: MTS proliferation assay. The format is cell-based. To be noted: MRC5, 72 h. A digest of the protocol:
as §1

Setting [5] is: conc 0.1 (final concentrations in μM).
Setting [6] is: conc 0.3 (final concentrations in μM).
The mark [7] stands for this setting: conc 1 (final concentrations in μM).
Setting [8] is: conc 3 (final concentrations in μM).
[9] abbreviates: conc 10 (final concentrations in μM).

Where only a bound is given, the exact number is not on record here.

`Cc1ccc(S(=O)(=O)n2cc(CN(C)C3CCN(C)CC3)cc2-c2ccc3c(c2)OCO3)cc1` [Example 26]: the “Hoechst 33342 nuclear staining score, HeLa” value in assay [1] (setting [5]), in assay [1] (setting [6]), in assay [1] (setting [7]) and in assay [1] (setting [8]) was 0 in each case. The “Hoechst 33342 nuclear staining score, Jurkat” value in assay [1] (setting [5]), in assay [1] (setting [6]), in assay [1] (setting [7]) and in assay [1] (setting [8]) was 0 in each case. Moreover, the IC50 in assay [2], in assay [3] and in assay [4] was over 1000 nM throughout.
Turning to `Cc1ccc(S(=O)(=O)n2cc(CN3CCN(c4ncccn4)CC3)cc2-c2ccc3c(c2)OCO3)cc1` [Example 28], the “Hoechst 33342 nuclear staining score, HeLa” value in assay [1] (setting [5]), in assay [1] (setting [6]), in assay [1] (setting [7]) and in assay [1] (setting [8]) was 0 each time. The “Hoechst 33342 nuclear staining score, Jurkat” value in assay [1] (setting [5]), in assay [1] (setting [6]), in assay [1] (setting [7]) and in assay [1] (setting [8]) was 0 in each case. In addition, the IC50 in assay [2], in assay [3] and in assay [4] was over 1000 nM throughout.
As for `CCN1CCN(CCCNCc2cc(-c3ccc4c(c3)OCO4)n(S(=O)(=O)c3ccc(C)cc3)c2)CC1` [Example 29], the “Hoechst 33342 nuclear staining score, HeLa” value in assay [1] (setting [5]), in assay [1] (setting [6]), in assay [1] (setting [7]) and in assay [1] (setting [8]) was 0 throughout. For the same compound, the “Hoechst 33342 nuclear staining score, Jurkat” value in assay [1] (setting [5]), in assay [1] (setting [6]), in assay [1] (setting [7]) and in assay [1] (setting [8]) was 0 in each case. In addition, the IC50 in assay [2], in assay [3] and in assay [4] was over 1000 nM throughout.
With `Cc1ccc(S(=O)(=O)n2cc(CN(C)CCN(C)C)cc2-c2ccc3c(c2)OCO3)cc1` [Example 31], the “Hoechst 33342 nuclear staining score, HeLa” value in assay [1] (setting [5]), in assay [1] (setting [6]), in assay [1] (setting [7]) and in assay [1] (setting [8]) was 0 each time. For the same compound, the “Hoechst 33342 nuclear staining score, Jurkat” value in assay [1] (setting [5]), in assay [1] (setting [6]), in assay [1] (setting [7]) and in assay [1] (setting [8]) was 0 throughout. Besides, the IC50 in assay [2], in assay [3] and in assay [4] was over 1000 nM throughout.
Turning to `Cc1ccc(S(=O)(=O)n2cc(CN3CCN(c4ccccn4)CC3)cc2-c2ccc3c(c2)OCO3)cc1` [Example 32], the “Hoechst 33342 nuclear staining score, HeLa” value in assay [1] (setting [5]), in assay [1] (setting [6]), in assay [1] (setting [7]) and in assay [1] (setting [8]) was 0 throughout. Besides, the “Hoechst 33342 nuclear staining score, Jurkat” value in assay [1] (setting [5]), in assay [1] (setting [6]), in assay [1] (setting [7]) and in assay [1] (setting [8]) was 0 throughout. In addition, the IC50 in assay [2], in assay [3] and in assay [4] was over 1000 nM throughout.
Turning to `CCN(CC)CCCNCc1cc(-c2ccc3c(c2)OCO3)n(S(=O)(=O)c2ccc(C)cc2)c1` [Example 34], the “Hoechst 33342 nuclear staining score, HeLa” value in assay [1] (setting [5]), in assay [1] (setting [6]), in assay [1] (setting [7]) and in assay [1] (setting [8]) was 0 each time. Further, the “Hoechst 33342 nuclear staining score, Jurkat” value in assay [1] (setting [5]), in assay [1] (setting [6]), in assay [1] (setting [7]) and in assay [1] (setting [8]) was 0 throughout. The IC50 in assay [2], in assay [3] and in assay [4] was over 1000 nM each time.
Consider `CCN1CCN(c2ccc(NCc3cc(-c4ccc5c(c4)OCO5)n(S(=O)(=O)c4ccc(C)cc4)c3)cc2)CC1` [Example 37], for which the “Hoechst 33342 nuclear staining score, HeLa” value in assay [1] (setting [6]), in assay [1] (setting [7]), in assay [1] (setting [8]) and in assay [1] (setting [9]) was 0 throughout. In addition, the “Hoechst 33342 nuclear staining score, Jurkat” value in assay [1] (setting [6]), in assay [1] (setting [7]), in assay [1] (setting [8]) and in assay [1] (setting [9]) was 0 in each case. Besides, the IC50 in assay [2], in assay [3] and in assay [4] was over 1000 nM in each case.
For the compound `Cc1ccc(S(=O)(=O)n2cc(CNc3ccc(N4CCOCC4)c(Cl)c3)cc2-c2ccc3c(c2)OCO3)cc1` [Example 38], the “Hoechst 33342 nuclear staining score, HeLa” value in assay [1] (setting [6]), in assay [1] (setting [7]), in assay [1] (setting [8]) and in assay [1] (setting [9]) was 0 in each case. Moreover, the “Hoechst 33342 nuclear staining score, Jurkat” value in assay [1] (setting [6]), in assay [1] (setting [7]), in assay [1] (setting [8]) and in assay [1] (setting [9]) was 0 each time. For the same compound, the IC50 in assay [2], in assay [3] and in assay [4] was over 1000 nM in each case.
Turning to `Cc1ccc(S(=O)(=O)n2cc(CNc3ccc(N4CCOCC4)cc3N3CCOCC3)cc2-c2ccc3c(c2)OCO3)cc1` [Example 39], the “Hoechst 33342 nuclear staining score, HeLa” value in assay [1] (setting [6]), in assay [1] (setting [7]), in assay [1] (setting [8]) and in assay [1] (setting [9]) was 0 in each case. Further, the “Hoechst 33342 nuclear staining score, Jurkat” value in assay [1] (setting [6]), in assay [1] (setting [7]), in assay [1] (setting [8]) and in assay [1] (setting [9]) was 0 throughout. Moreover, the IC50 in assay [2], in assay [3] and in assay [4] was over 1000 nM in each case.
On to `Cc1ccc(S(=O)(=O)n2cc(CNc3ccc(-n4ccnc4)cc3)cc2-c2ccc3c(c2)OCO3)cc1` [Example 40], for which the “Hoechst 33342 nuclear staining score, HeLa” value in assay [1] (setting [6]), in assay [1] (setting [7]), in assay [1] (setting [8]) and in assay [1] (setting [9]) was 0 each time. The “Hoechst 33342 nuclear staining score, Jurkat” value in assay [1] (setting [6]), in assay [1] (setting [7]), in assay [1] (setting [8]) and in assay [1] (setting [9]) was 0 in each case. Further, the IC50 in assay [2], in assay [3] and in assay [4] was over 1000 nM each time.
Consider `Cc1ccc(S(=O)(=O)n2cc(-c3cncnc3)cc2-c2ccc3c(c2)OCO3)cc1` [Example 46], for which the “Hoechst 33342 nuclear staining score, HeLa” value in assay [1] (setting [6]), in assay [1] (setting [7]), in assay [1] (setting [8]) and in assay [1] (setting [9]) was 0 throughout. In addition, the “Hoechst 33342 nuclear staining score, Jurkat” value in assay [1] (setting [6]), in assay [1] (setting [7]), in assay [1] (setting [8]) and in assay [1] (setting [9]) was 0 in each case. In addition, the IC50 in assay [2], in assay [3] and in assay [4] was over 1000 nM each time.
With `Cc1ccc(S(=O)(=O)n2cc(-c3ccc(C#N)cc3)cc2-c2ccc3c(c2)OCO3)cc1` [Example 48], the “Hoechst 33342 nuclear staining score, HeLa” value in assay [1] (setting [5]), in assay [1] (setting [6]), in assay [1] (setting [7]) and in assay [1] (setting [8]) was 0 each time. Also, the “Hoechst 33342 nuclear staining score, Jurkat” value in assay [1] (setting [5]), in assay [1] (setting [6]), in assay [1] (setting [7]) and in assay [1] (setting [8]) was 0 in each case. Besides, the IC50 in assay [2], in assay [3] and in assay [4] was over 1000 nM throughout.
Regarding `Cc1ccc(S(=O)(=O)n2cc(-c3cccnc3)cc2-c2ccc3c(c2)OCO3)cc1` [Example 49], the “Hoechst 33342 nuclear staining score, HeLa” value in assay [1] (setting [5]), in assay [1] (setting [6]), in assay [1] (setting [7]) and in assay [1] (setting [8]) was 0 each time. The “Hoechst 33342 nuclear staining score, Jurkat” value in assay [1] (setting [5]), in assay [1] (setting [6]), in assay [1] (setting [7]) and in assay [1] (setting [8]) was 0 throughout. For the same compound, the IC50 in assay [2], in assay [3] and in assay [4] was over 1000 nM each time.

These data come from patent US7612064B2, “Sulfopyrroles” (Takeda Pharmaceutical Company Limited, priority 2003, dated 2009).
